Test [1] has as its target Vascular endothelial growth factor receptor 2 (Homo sapiens, UniProt P35968). Briefly: Inhibitory activity against VEGFR2 kinase.
Test [2] addresses Vascular endothelial growth factor receptor (Homo sapiens, UniProt P17948+P35916+P35968). The test can be described thus: Inhibitory activity against VEGF-stimulated proliferation in HUVEC. Format: functional.

Vascular endothelial growth factor receptor 2, sequence (P35968 whole entry): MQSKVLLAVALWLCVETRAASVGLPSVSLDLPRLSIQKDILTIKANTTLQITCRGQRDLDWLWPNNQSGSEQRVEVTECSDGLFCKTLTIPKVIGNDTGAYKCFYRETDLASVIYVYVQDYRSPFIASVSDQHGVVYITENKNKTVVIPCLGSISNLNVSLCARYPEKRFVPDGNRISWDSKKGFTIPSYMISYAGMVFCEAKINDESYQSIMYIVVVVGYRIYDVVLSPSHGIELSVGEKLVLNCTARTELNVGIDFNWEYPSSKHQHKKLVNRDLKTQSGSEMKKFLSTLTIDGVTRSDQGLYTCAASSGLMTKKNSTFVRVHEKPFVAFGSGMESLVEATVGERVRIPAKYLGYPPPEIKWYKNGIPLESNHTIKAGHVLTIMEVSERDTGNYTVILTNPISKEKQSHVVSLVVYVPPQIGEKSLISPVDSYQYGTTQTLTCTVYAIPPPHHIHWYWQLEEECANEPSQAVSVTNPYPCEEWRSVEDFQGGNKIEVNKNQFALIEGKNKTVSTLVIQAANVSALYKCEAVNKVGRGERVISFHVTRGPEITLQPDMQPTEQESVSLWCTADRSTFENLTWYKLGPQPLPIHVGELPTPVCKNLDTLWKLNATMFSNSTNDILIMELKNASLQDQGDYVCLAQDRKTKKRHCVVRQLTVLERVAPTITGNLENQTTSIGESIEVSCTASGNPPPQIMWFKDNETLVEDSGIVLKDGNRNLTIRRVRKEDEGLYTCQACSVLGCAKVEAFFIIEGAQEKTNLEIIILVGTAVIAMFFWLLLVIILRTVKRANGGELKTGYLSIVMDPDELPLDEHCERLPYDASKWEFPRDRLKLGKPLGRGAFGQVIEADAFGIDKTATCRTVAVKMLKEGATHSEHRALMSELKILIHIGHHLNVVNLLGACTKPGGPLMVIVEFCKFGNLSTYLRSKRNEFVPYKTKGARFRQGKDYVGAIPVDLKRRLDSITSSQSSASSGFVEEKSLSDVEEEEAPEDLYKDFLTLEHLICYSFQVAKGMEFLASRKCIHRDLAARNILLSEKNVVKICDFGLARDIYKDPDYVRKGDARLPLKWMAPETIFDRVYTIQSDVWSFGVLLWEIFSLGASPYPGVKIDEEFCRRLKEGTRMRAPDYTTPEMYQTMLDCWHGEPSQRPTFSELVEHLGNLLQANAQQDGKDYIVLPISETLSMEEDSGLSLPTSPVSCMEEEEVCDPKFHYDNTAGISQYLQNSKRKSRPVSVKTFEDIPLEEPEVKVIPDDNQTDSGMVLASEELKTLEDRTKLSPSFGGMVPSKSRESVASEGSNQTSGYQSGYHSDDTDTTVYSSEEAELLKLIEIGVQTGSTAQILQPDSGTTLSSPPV

For the compound `COc1cc2ncnc(Nc3ccc(Cl)cc3F)c2cc1OC`, the IC50 – broadly, the concentration that gives 50% inhibition – in test [1] is 1.5 µM.

Regarding `COc1cc2c(Nc3ccc(Cl)cc3F)ncnc2cc1OCCOCCNC(=O)C(CCCCNC(=O)CCCCC1SCC2NC(=O)NC21)NC(=O)c1c(F)c(F)c(N=[N+]=[N-])c(F)c1F` (stereo unspecified), the figures for the IC50 in test [2] and in test [1] were 40.3 µM and 7.1 µM, respectively.

For `COc1cc2c(Nc3ccc(Cl)cc3F)ncnc2cc1OCCOCCNC(=O)c1c(F)c(F)c(N=[N+]=[N-])c(F)c1F`, the IC50 is 3.2 µM in test [2] and less than 1 µM in test [1].

For `COc1cc2c(Nc3ccc(Cl)cc3F)ncnc2cc1OCCOCCNC(=O)CCCCC1SCC2NC(=O)NC21` (stereo unspecified), the IC50 in test [2] stood at 1.9 µM; in test [1] it was 1.5 µM.

Regarding `COc1cc2c(Nc3ccc(Cl)cc3F)ncnc2cc1OCCNC(=O)CCCCC1SCC2NC(=O)NC21` (stereo unspecified), the results for the IC50 in test [2] and in test [1] were 14.7 µM and 4.8 µM, respectively.

For the compound `COc1cc2c(Nc3ccc(Cl)cc3F)ncnc2cc1OCCNC(=O)c1c(F)c(F)c(N=[N+]=[N-])c(F)c1F`, the IC50 was 4.1 µM in test [2] and less than 1 µM in test [1].

(Values after ChEMBL document CHEMBL1148542, “Synthesis of a novel biotin-tagged photoaffinity probe for VEGF receptor tyrosine kinases” (Bioorg Med Chem Lett, 2006).)
